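In this assay, cells in 96-well plates receive the compound at five concentrations for 48 hours. Endpoints are linearly interpolated between the surrounding concentrations. At the GI50, growth is halved.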 Active and inactive are the calls of the source. Cut-off read from the data, not from the text of the source: active = GI50 up to about 1.1 µM and inactive = higher.
Tests used:
Experiment in all cases: NCI-60 cell line screen, 48 h
CAKI-1 = system: CAKI-1
HT-29 = system: HT-29
IGROV-1 = system: IGROV-1
K562 = system: K562
M14 = system: M14
NCI-H226 = system: NCI-H226
OVCAR-4 = system: OVCAR-4
OVCAR-5 = system: OVCAR-5
RPMI-8226 = system: RPMI-8226
SF-268 = system: SF-268
SF-539 = system: SF-539
SK-MEL-2 = system: SK-MEL-2
SW-620 = system: SW-620
UO-31 = system: UO-31
SK-OV-3 = system: SK-OV-3
SR = system: SR

Measured: GI50

Nc1nc(N)c(-c2ccccc2)c(C(=O)Nc2ccc(Cl)c(Cl)c2)n1
inactive: CAKI-1 > 100 µM | HT-29 > 100 µM | IGROV-1 > 100 µM | K562 > 100 µM | M14 > 100 µM | NCI-H226 > 100 µM | OVCAR-4 > 100 µM | OVCAR-5 > 100 µM | RPMI-8226 46.8 µM | SF-268 > 100 µM | SF-539 > 100 µM | SK-MEL-2 > 100 µM | SW-620 > 100 µM | UO-31 > 100 µM

Cc1cccc(/C=N/C23CC4CC(CC(C4)C2)C3)c1
inactive: CAKI-1 > 100 µM | HT-29 > 100 µM | IGROV-1 > 100 µM | K562 > 100 µM | M14 > 100 µM | NCI-H226 > 100 µM | OVCAR-4 > 100 µM | OVCAR-5 > 100 µM | RPMI-8226 > 100 µM | SF-268 > 100 µM | SF-539 > 100 µM | SK-MEL-2 > 100 µM | SK-OV-3 > 100 µM | SW-620 > 100 µM | UO-31 > 100 µM

CCOC(=O)[C@@]12C(C)=CC(=O)O[C@]1(C)C[C@H]2C#N
inactive: HT-29 > 100 µM | IGROV-1 > 100 µM | K562 > 100 µM | M14 > 100 µM | NCI-H226 50.9 µM | OVCAR-4 > 100 µM | RPMI-8226 > 100 µM | SF-268 > 100 µM | SF-539 > 100 µM | SK-MEL-2 > 100 µM | SK-OV-3 > 100 µM | SW-620 > 100 µM | UO-31 > 100 µM

COC(=O)/C(C)=C/[N+](=O)[O-]
inactive: CAKI-1 2.57 µM | HT-29 20.6 µM | IGROV-1 20.9 µM | K562 3.4 µM | M14 15.7 µM | OVCAR-4 17.5 µM | OVCAR-5 19.7 µM | RPMI-8226 2.77 µM | SF-268 23.1 µM | SF-539 18.8 µM | SK-MEL-2 19.7 µM | SK-OV-3 19.2 µM | SW-620 5.38 µM | UO-31 18.9 µM

O=c1[nH]c(=O)n(C2CC(O)C(CO)O2)cc1C#Cc1ccc(C(F)(F)F)cc1 (configuration not stated)
inactive: HT-29 > 100 µM | IGROV-1 > 100 µM | K562 > 100 µM | M14 > 100 µM | NCI-H226 > 100 µM | OVCAR-4 > 100 µM | OVCAR-5 > 100 µM | RPMI-8226 > 100 µM | SF-268 > 100 µM | SF-539 > 100 µM | SK-MEL-2 > 100 µM | SK-OV-3 > 100 µM | SR > 100 µM | SW-620 > 100 µM | UO-31 > 100 µM

O=C1C=C(Nc2ccc(Cl)cc2C(=O)c2ccccc2)c2ccccc2C1=O
inactive: CAKI-1 > 100 µM | HT-29 > 100 µM | IGROV-1 > 100 µM | K562 > 100 µM | M14 > 100 µM | NCI-H226 > 100 µM | OVCAR-4 > 100 µM | OVCAR-5 > 100 µM | SF-268 > 100 µM | SF-539 > 100 µM | SK-MEL-2 > 100 µM | SK-OV-3 > 100 µM | SW-620 > 100 µM | UO-31 > 100 µM

Cc1cccc(NC(=O)C(=O)Cc2nc3ccccc3nc2O)c1C
inactive: CAKI-1 > 100 µM | HT-29 > 100 µM | IGROV-1 > 100 µM | K562 > 100 µM | M14 > 100 µM | NCI-H226 > 100 µM | OVCAR-4 > 100 µM | OVCAR-5 > 100 µM | SF-268 > 100 µM | SF-539 > 100 µM | SK-OV-3 > 100 µM | SR > 100 µM | SW-620 > 100 µM | UO-31 > 100 µM

O=C(N/N=C/c1cc(Cl)cc(Cl)c1O)c1ccncc1
inactive: HT-29 > 10 µM | IGROV-1 63.5 µM | K562 > 100 µM | M14 > 100 µM | NCI-H226 > 100 µM | OVCAR-5 39.1 µM | RPMI-8226 > 100 µM | SF-268 > 100 µM | SF-539 68.5 µM | SK-OV-3 > 100 µM | SR 39.1 µM | SW-620 > 100 µM | UO-31 71.1 µM

— ChEMBL document CHEMBL1201862, “PubChem BioAssay data set” (2004)
